In PubChem BioAssay AID1552 (Sanford-Burnham Center for Chemical Genomics, 2009):
Active and inactive are the calls of the source. The rule behind the calls is not given here.

These molecules were tested against Ubiquitin-conjugating enzyme E2 N (Homo sapiens) (UniProt P61088) (assay: UBE2N binders by NMR, biophysical, purified protein (AID 1552)). Conditions: NMR binding to purified UBE2N.
Chain of Ubiquitin-conjugating enzyme E2 N (Homo sapiens) (P61088 whole entry, looked up): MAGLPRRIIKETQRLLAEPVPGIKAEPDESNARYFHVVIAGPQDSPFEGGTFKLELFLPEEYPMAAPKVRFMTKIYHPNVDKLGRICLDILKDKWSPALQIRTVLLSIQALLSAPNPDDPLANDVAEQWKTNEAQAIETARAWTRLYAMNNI

| Structure (SMILES) | Kd |
| --- | --- |
| CC(C)Oc1ccc(NC(N)=O)cc1 | > 4 mM (inactive) |
| Cc1ccc(C)c(S(=O)(=O)NCc2cccnc2)c1 | > 4 mM (inactive) |
| C[C@@H]1CC[C@H]2[C@@H](C)C(=O)O[C@@H]3OC4(C)CC[C@@H]1[C@]32OO4 | > 4 mM (inactive) |
| NC(=O)c1sc2ccccc2c1Cl | > 4 mM (inactive) |
| CN1C(=O)/C(=C\c2ccc[nH]2)SC1=S | > 4 mM (inactive) |
| Cc1occc1C(=O)NCc1ccncc1 | > 4 mM (inactive) |
| O=C(O)Cc1csc(-c2ccccc2)n1 | > 4 mM (inactive) |
| Cc1c(N=CN(C)C)c(=O)n(-c2ccccc2)n1C | > 4 mM (inactive) |
| COc1ccc(NC(=O)c2ccc[n+]([O-])c2)cc1 | > 4 mM (inactive) |
| CSc1nc(C)cc(-n2ccc(=O)[nH]c2=O)n1 | > 4 mM (inactive) |
| Cc1noc(-c2ccccc2)c1C(=O)O | > 4 mM (inactive) |
| NC(=O)C1CCN(S(=O)(=O)c2ccccc2)CC1 | > 4 mM (inactive) |
| O=C(c1ccccc1)N1CCNCC1 | > 4 mM (inactive) |
| NC1=NC(=O)/C(=C\c2cccnc2)S1 | > 4 mM (inactive) |
| O=C(O)Cn1c(C(F)(F)F)nc2ccccc21 | > 4 mM (inactive) |
| O=C(O)c1cc(O)c(O)c(O)c1 | > 4 mM (inactive) |
| COC(=O)c1ccccc1NC(=O)c1cc[n+]([O-])cc1 | > 4 mM (inactive) |
| CC1(C)CC23C(=O)CCC(O)C2(C)CCC13 (centres undefined) | > 4 mM (inactive) |
| N=Nc1c(O)[nH]c2ccccc12 | > 4 mM (inactive) |
| CC(=O)Nc1cccc(-c2n[nH]c(=S)n2C)c1 | > 4 mM (inactive) |
| O=C1CCCc2c(O)cccc21 | > 4 mM (inactive) |
| O=C(c1ccccc1)c1ccccc1C(=O)N1CCCC1 | > 4 mM (inactive) |
| O=CN1CCN(C(=O)c2ccco2)CC1 | > 4 mM (inactive) |
| CC(=O)c1cccc(NC(=O)C=C(C)C)c1 | > 4 mM (inactive) |
| Cc1cc(O)cc(=O)o1 | > 4 mM (inactive) |

| Structure (SMILES) | Kd |
| --- | --- |
| NC(=S)NC1CCS(=O)(=O)C1 (centres undefined) | > 4 mM (inactive) |
| O=C1NC(=O)C(c2ccccc2)C(=O)N1 | > 4 mM (inactive) |
| NCC(N)C(=O)c1ccccc1 (centres undefined) | > 4 mM (inactive) |
| Cc1c(C)[n+]([O-])c(-c2ccc([N+](=O)[O-])cc2)n1O | > 4 mM (inactive) |
| O=C(O)CSc1nc2ccccc2c(=O)[nH]1 | > 4 mM (inactive) |
| NS(=O)(=O)c1ccc(NC(=O)C2CC2)cc1 | > 4 mM (inactive) |
| S=c1[nH]cnc2sccc12 | > 4 mM (inactive) |
| CC(=O)c1cc(C)ccc1OC(=O)c1cccnc1 | > 4 mM (inactive) |
| O=C(O)C1CC(=O)N(Cc2cccs2)C1 (centres undefined) | > 4 mM (inactive) |
| Cc1csc(NC(=O)c2cccs2)n1 | > 4 mM (inactive) |
| CS(C)=C1C(=O)NC(=O)N(c2ccccc2)C1=O | > 4 mM (inactive) |
| CC(=O)c1c(O)c(C)c(O)c2c1OC1=CC(=O)C(C(C)=O)C(=O)C12C (centres undefined) | > 4 mM (inactive) |
| Cc1occc1C(=O)Nc1ccc2c(c1)OCO2 | > 4 mM (inactive) |
| NC(=O)CNC(=O)c1ccccc1 | > 4 mM (inactive) |
| Cc1ccc(NC(=O)CC2NCCNC2=O)c(C)c1 (centres undefined) | > 4 mM (inactive) |
| Cc1ccc(C(=O)NC2=NCCS2)o1 | > 4 mM (inactive) |
| CN1C(CC(=O)c2ccccc2)CCCC1CC(O)c1ccccc1 (centres undefined) | > 4 mM (inactive) |
| CC(C)=CCC/C(C)=C/CC/C(C)=C/CC/C(C)=C/CC/C(C)=C/CC/C(C)=C/CC/C(C)=C/CC/C(C)=C/CC/C(C)=C/CO | > 4 mM (inactive) |
| Cc1nc(-c2cccc(N)c2)cs1 | > 4 mM (inactive) |
| Cc1cc2nc(SCC(=O)O)nc(C)c2cc1C | > 4 mM (inactive) |
| CN1CCN(CC(=O)N2CCc3ccccc32)CC1 | > 4 mM (inactive) |
| Cn1c(=O)[nH]c(=O)c2nsnc21 | > 4 mM (inactive) |
| O=C(Nc1ccon1)c1csc2c1CCCC2 | > 4 mM (inactive) |
| NC(c1ccccc1)c1ccccn1 (centres undefined) | > 4 mM (inactive) |
